Reference: publication PMC6151599, “Intestinal Absorption of Triterpenoids and Flavonoids from Glycyrrhizae radix et rhizoma in the Human Caco-2 Monolayer Cell Model” (Molecules : A Journal of Synthetic Chemistry and Natural …, 2017)
Entries after “also recorded” stand apart in the source; their conditions may differ. Read-outs that look alike come from different tables or passages of the source.

What was measured:
[1] = Bidirectional transport (Papp) across Caco-2 cell monolayer; type: in vitro ADME, human; settings: human; for Papp at 90 min, 50 µM / Papp A→B at 90 min, 50 µM / Papp B→A at 90 min, 50 µM: Caco-2 monolayer; for Papp at 90 min, 50 µM: both directions; for efflux ratio at 90 min, 50 µM: Caco-2, Caco-2 monolayer, read-out: Efflux Ratio (Papp BL→AP to Papp AP→BL); for Papp A→B at 90 min, 50 µM / Papp B→A at 90 min, 50 µM: incubation up to 90 min, n = 3
Procedure: (§1) The Caco-2 cell monolayer permeability was carried out according to the previously reported method. Briefly, the Caco-2 cells were maintained in DMEM containing 10% FBS, 1% NEAA, 100 units/mL of penicillin, and 100 µg/mL of streptomycin, in a constant humidity atmosphere of 5% CO2 and 95% air at 37 °C. For confluence and differentiation, cells were seeded at a density of 1 × 10^5 cells/cm^2 into 12-well Transwell plates (insert diameter 12 mm, pore size 3.0 μm, membrane growth area 1.12 cm^2, Costar® #3402) and were allowed to grow for 21 days before the permeation experiment. On day 21, the monolayers with TEER values > 500 Ω·cm^2 were qualified for the transport experiment. The transport study was initiated by the careful removal of the culture medium from AP and BL sides of the inserts. Caco-2 monolayers were rinsed twice with pre-warmed HBSS and were incubated by pre-warmed HBSS for 30 min at 37 °C. […] The assayed solutions (50 µM) were added to the AP side (0.5 mL, for absorption transport) or BL side (1.5 mL, for efflux transport) of the inserts, while the receiving chamber contained the corresponding volume of HBSS. Incubation was performed at 37 °C for 90 min, with shaking at 50 rpm. Samples were collected from the inserts and lyophilized. The dried sample was then sonicated with the appropriate volume of MeOH, followed by centrifugation at 15,000× g for 10 min. The supernatant was filtered through a 0.45 μm filter and injected into HPLC system for quantitative analysis.
(§2) The AP to BL or BL to AP permeability coefficient (Papp) value of each compound was calculated based on the following equation:Papp = (dQ/dt) × (1/A) × (1/C0) (cm/s)(1) where dQ/dt is the rate of the appearance of the test compound on the receiver compartment (μmol/s), C0 is the initial test compound concentration on the donor compartment (μmol/mL), and A is the surface area of Caco-2 monolayer (cm^2).
(§3) While shaking the samples (37 °C, 50 rpm), 1.3 mL aliquots were taken from BL side or 0.45 mL aliquots were taken from AP side at 30 min intervals from […].
(§4) After shaking the samples (37 °C, 50 rpm) in a shaking water bath for 90 min, aliquots were collected as described above.

[2] = test system: Caco-2 cell monolayer; test: as above; type: in vitro ADME, human; settings: for Absorption designation: from Caco-2 Papp compared with propranolol and atenolol; for Time course of bilateral permeation: 0–180 min at 50 μM; for Transport mechanism / Efflux Ratio (Papp BL→AP to Papp AP→BL): Caco-2 monolayer; for Efflux Ratio (Papp BL→AP to Papp AP→BL): 90 min; for Concentration dependence of rate of membrane permeation: at 90 min within test range of concentration
Procedure: as §1, §2, §3, §4

[3] = Intracellular accumulation and total recovery (mass balance) at the end of transport; type: in vitro ADME, human; settings: human, Caco-2, end of transport, n = 3
Procedure: (§5) To measure the amount of intracellular accumulation, the Caco-2 cells were rinsed three times with ice-cold HBSS at the end of transport experiments. After three freeze (−20 °C)-thaw (room temperature) cycles, the lysed Caco-2 cells were lyophilized. The dried cells were sonicated in 0.2 mL of 70% aqueous MeOH for 20 min and then centrifuged at 15,000× g for 10 min. The supernatant was filtered through a 0.45 μm filter and a 10 μL aliquot was injected into the HPLC system for analysis. To check the mass balance, the recoveries of the assayed compounds were measured at both sides of the insert and intracellular accumulation of the Caco-2 cells.

[4] = test system: Caco-2 cell monolayer; test: as above; type: in vitro ADME, human
Procedure: as §5

[5] = test system: Caco-2 cell monolayer; settings: cited from earlier work; for Absorption designation: from previously reported Caco-2 Papp
[6] = Bidirectional transport (Papp) across Caco-2 cell monolayer; type: in vitro ADME; settings: human, ratio of previously reported Papp values (refs 35, 36), read-out: Efflux Ratio (Papp BL→AP to Papp AP→BL)
[7] = end of transport, n = 3, –: not detected

Row | Structure (SMILES) | Papp at 90 min, 50 µM [1] | recovery ([3]; read-out: Total recovery AP→BL) | recovery ([3]; read-out: Total recovery BL→AP) | efflux ratio at 90 min, 50 µM [1] | Papp A→B at 90 min, 50 µM [1] | Papp B→A at 90 min, 50 µM [1] | further results
1 | CC1(C)[C@@H](O[C@H]2O[C@H](C(=O)O)[C@@H](O)[C@H](O)[C@H]2O[C@@H]2O[C@H](C(=O)O)[C@@H](O)[C@H](O)[C@H]2O)CC[C@]2(C)[C@H]3C(=O)C=C4[C@@H]5C[C@@](C)(C(=O)O)CC[C@]5(C)CC[C@@]4(C)[C@]3(C)CC[C@@H]12 [Compound 1, glycyrrhizin] | < 0.1 ×10⁻⁶ cm/s |  |  |  |  |  | Detection of compound in the receiving side ([2]; after incubation for 90 min, AP→BL and BL→AP): not detected; also recorded: below the lower limit of detection; Absorption designation [2]: very poorly absorbed; also recorded: poorly absorbed
2 | CC1(C)[C@@H](O[C@@H]2O[C@H](C(=O)O)[C@@H](O)[C@H](O)[C@H]2O)CC[C@]2(C)[C@H]3C(=O)C=C4[C@@H]5C[C@@](C)(C(=O)O)CC[C@]5(C)CC[C@@]4(C)[C@]3(C)CC[C@@H]12 [Compound 2, glycyrrhetic acid-3-O-mono-β-D-glucuronide] | ~1 ×10⁻⁶ cm/s | 97.04 ± 0.36% | 91.6 ± 1.27% | 1.06 to 1.11 | 1.55 ± 0.09 ×10⁻⁶ cm/s | 1.65 ± 0.95 ×10⁻⁶ cm/s | Time course of bilateral permeation [2]: increased approximately linearly; Transport mechanism [2]: passive diffusion; Efflux Ratio (Papp BL→AP to Papp AP→BL) [2]: 1.06; Concentration dependence of rate of membrane permeation [2]: increased approximately linearly; Absorption designation [2]: moderately absorbed
3 | CC1(C)[C@@H](O)CC[C@]2(C)[C@H]3C(=O)C=C4[C@@H]5C[C@@](C)(C(=O)O)CC[C@]5(C)CC[C@@]4(C)[C@]3(C)CC[C@@H]12 [Compound 3, glycyrrhetinic acid] | > 10 ×10⁻⁶ cm/s | 85.1 ± 2.33% | 98.24 ± 0.59% | 1.06 to 1.11 | 12.6 ± 0.4 ×10⁻⁶ cm/s | 14 ± 1.3 ×10⁻⁶ cm/s | CA (cell accumulation) AP→BL [4, 7]: 0.25 ± 0.01%; Time course of bilateral permeation [2]: increased approximately linearly; Transport mechanism [2]: passive diffusion; Efflux Ratio (Papp BL→AP to Papp AP→BL) [2]: 1.11; Concentration dependence of rate of membrane permeation [2]: increased approximately linearly
4 | C=CC(C)(C)c1cc(/C=C/C(=O)c2ccc(O)cc2)c(OC)cc1O [Compound 4, licochalcone A] |  | 81.88 ± 0.67% | 90.4 ± 2.74% | 1.06 | 1.68 ± 0.13 ×10⁻⁶ cm/s | 1.78 ± 0.03 ×10⁻⁶ cm/s | Cell accumulation / intracellular uptake (in words) ([4]; all bidirectional transport): higher intracellular uptake; also recorded: higher accumulation; Total recovery AP→BL ([4]; end of transport, n = 3): relatively lower; CA (cell accumulation) AP→BL [4, 7]: 50.52 ± 1.88%; CA (cell accumulation) BL→AP [4, 7]: 42.56 ± 2.36%; Absorption designation [2]: moderately absorbed
5 | O=C(/C=C/c1ccc(O)cc1)c1ccc(O)cc1O [Compound 11, isoliquiritigenin] |  |  |  |  |  |  | Papp BL→AP ([5]; Caco-2 monolayer): 9.35 ± 0.43 ×10^−6 cm/s
6 | O=C(/C=C/c1ccc(O[C@@H]2O[C@H](CO)[C@@H](O)[C@H](O)[C@H]2O)cc1)c1ccc(O)cc1O [Compound 12, isoliquiritin] |  |  |  |  |  |  | Papp AP→BL ([5]; Caco-2 monolayer): 0.87 ± 0.02 ×10^−6 cm/s; Papp BL→AP ([5]; Caco-2 monolayer): 0.77 ± 0.07 ×10^−6 cm/s; Papp from AP to BL direction ([5]; Caco-2 monolayer): (8.69 ± 0.15) × 10^−7 cm/s; Papp from BL to AP direction ([5]; Caco-2 monolayer): (7.68 ± 0.66) × 10^−7 cm/s; Papp values (bidirectional) ([5]; Caco-2 monolayer): ≤ 1e-07 cm/s; Absorption designation [5]: poorly absorbed; efflux ratio [6]: 0.89
7 | O=C1C[C@@H](c2ccc(O[C@@H]3O[C@H](CO)[C@@H](O)[C@H](O)[C@H]3O)cc2)Oc2cc(O)ccc21 [Compound 13, liquiritin] |  |  |  |  |  |  | Papp AP→BL ([5]; Caco-2 monolayer): 0.54 ± 0.02 ×10^−6 cm/s; Papp BL→AP ([5]; Caco-2 monolayer): 0.53 ± 0.03 ×10^−6 cm/s; Papp from BL to AP direction ([5]; Caco-2 monolayer): (5.32 ± 0.31) × 10^−7 cm/s; Papp values (bidirectional) ([5]; Caco-2 monolayer): ~1e-07 cm/s; Absorption designation [5]: poorly absorbed; efflux ratio [6]: 0.98
8 | CC(C)NCC(O)COc1cccc2ccccc12 (stereo not shown) [propranolol, reference compound] |  |  |  |  |  |  | Papp ([1]; Caco-2, read-out: Papp of transport markers): 25.1 ×10⁻⁶ cm/s

Further lines, with some results ahead:

Row | Papp at 90 min, 50 µM [1] | recovery ([3]; read-out: Total recovery AP→BL) | recovery ([3]; read-out: Total recovery BL→AP) | efflux ratio at 90 min, 50 µM [1] | Papp A→B at 90 min, 50 µM [1] | Papp B→A at 90 min, 50 µM [1] | Structure (SMILES) | further results
9 |  | 96.2 ± 0.19% | 94.5 ± 2.89% | 1.22 | 24.7 ± 2.8 ×10⁻⁶ cm/s | 30.2 ± 2.4 ×10⁻⁶ cm/s | COc1c(/C=C/C(=O)c2ccc(O)cc2)ccc(O)c1O [Compound 5, licochalcone B] | 
10 |  | 97.5 ± 1.26% | 96.1 ± 4.55% | 1.17 | 22.5 ± 1 ×10⁻⁶ cm/s | 26.4 ± 1.3 ×10⁻⁶ cm/s | COc1c(/C=C/C(=O)c2ccc(O)cc2)ccc(O)c1CC=C(C)C [Compound 6, licochalcone C] | 
11 |  | 96.9 ± 2.67% | 97.7 ± 3.29% | 1.15 | 20.7 ± 1 ×10⁻⁶ cm/s | 23.8 ± 0.3 ×10⁻⁶ cm/s | COc1cc(O)ccc1/C=C/C(=O)c1ccc(O)cc1 [Compound 7, echinatin] | 
12 | ~10 ×10⁻⁶ cm/s | 87 ± 2.78% | 94.8 ± 4.29% | 0.88 | 17.8 ± 0.6 ×10⁻⁶ cm/s | 15.7 ± 0.3 ×10⁻⁶ cm/s | O=C1C[C@@H](c2ccc(O)cc2)Oc2cc(O)ccc21 [Compound 9, liquiritigenin] | Time course of bilateral permeation [2]: increased approximately linearly; Concentration dependence of rate of membrane permeation [2]: increased approximately linearly
